Measurements taken from ChEMBL document CHEMBL5154864, “Design, synthesis and biological evaluation of novel nitric oxide donors with antioxidative activity” (Eur J Med Chem, 2022).
Activity calls are given as the source filed them. The rule behind the calls is not given here.

Key:
[1] = test system: HUVEC; test: Cytotoxicity against HUVEC cells assessed as reduction in cell viability at 5 uM in absence of TBHP by CCK8 assay; assay type: toxicity, cell-based; conditions: human
[2] = test system: HUVEC; test: Effect on intracellular NO production in HUVEC cells assessed as increase in NO level at 5 uM incubated for 24 hrs by inverted microscopic analysis; assay type: functional, cell-based; conditions: Homo sapiens
[3] = test system: HUVEC; test: Cytoprotective activity against TBHP induced oxidative stress in human HUVEC cells assessed as increase in cell viability at 5 uM by CCK8 assay; assay type: functional, cell-based
[4] = test system: Thoracic aorta; test: Vasodilation activity in C57BL/6 mouse thoracic aorta assessed as relaxation of phenylephrine-induced contractions at 5 to 50 uM; assay type: functional, tissue-based; conditions: dose 5-50 µM
[5] = test system: HUVEC; test: Induction of oxidative stress in HUVEC cells assessed as increase in intracellular ROS level at 5 uM incubated for 24 hrs by DCHF staining based inverted microscopic analysis; assay type: functional, cell-based; conditions: Homo sapiens
[6] = test system: Mus musculus; test: Reversal of Ang II infusion-induced smooth muscle dysfunction in C57BL/6 mouse model assessed as relaxation of SNP-stimulated vasodilation at 100 mg/kg/day, ip measured after 4 weeks; assay type: functional, organism-based
[7] = test system: Mus musculus; test: Antihypertensive activity against C57BL/6 mouse model of Ang II-induced hypertension assessed as reduction in systolic blood pressure at 100 mg/kg/day, ip measured after 4 weeks; assay type: functional, organism-based; set-up: scale not given: the % may be the effect or the level left
[8] = test system: Mus musculus; test: Antihypertensive activity against C57BL/6 mouse model of Ang II-induced hypertension assessed as reduction in diastolic blood pressure at 100 mg/kg/day, ip measured after 4 weeks; assay type: functional, organism-based; set-up: scale not given: the % may be the effect or the level left
[9] = test system: Mus musculus; test: Antihypertensive activity against C57BL/6 mouse model of Ang II-induced hypertension assessed as reduction in vascular ROS level at 100 mg/kg/day, ip measured after 4 weeks; assay type: functional, organism-based
[10] = test system: Mus musculus; test: Reversal of Ang II infusion-induced endothelial dysfunction in C57BL/6 mouse model assessed as relaxation of ACh-stimulated vasodilation at 100 mg/kg/day, ip measured after 4 weeks; assay type: functional, organism-based
[11] = test system: Mus musculus; test: Antihypertensive activity against C57BL/6 mouse model of Ang II-induced hypertension assessed as reduction in thoracic arterial wall thickness at 100 mg/kg/day, ip measured after 4 weeks; assay type: functional, organism-based

Compound | Activity [2] | Activity [3] | further results
CC1(C)N(O)C(c2ccc(C(=O)O)cc2)=[N+]([O-])C1(C)C | Active |  | Activity [1]: Non-Toxic
CC1(C)CC(O)CC(C)(C)N1[O] | Active | Active | 
O=[N+]([O-])O[C@@H]1CO[C@H]2[C@@H]1OC[C@@H]2O | Active |  | Activity [4]: Active; Activity [5]: Active
2-(2'-bromo-5'-hydroxylphenyl)-4,4,5,5-tetramethylimidazoline-1-oxyl-3-oxide | Active |  | 
2-(2'-bromo-6'-hydroxylphenyl)-4,4,5,5-tetramethylimidazoline-1-oxyl-3-oxide | Active |  | 
2-(2'-hydroxylphenyl)-4,4,5,5-tetramethyl-imidazoline-1-oxyl-3-oxide | Active |  | 
2-(2-hydroxynaphthalen-1-yl)-4,4,5,5-tetramethylimidazoline-1-oxyl-3-oxide | Active |  | 
2-(3'-bromo-4'-hydroxylphenyl)-4,4,5,5-tetramethylimidazoline-1-oxyl-3-oxide | Active |  | 
2-(4-hydroxy-3-methoxyphenyl)-4,4,5,5-tetramethylimidazoline-1-oxyl-3-oxide | Active | Active | 
(3S,6R)-6-(nitrooxy)hexahydrofuro[3,2-b]furan-3-yl 2-(2-(4,5-dihydro-4,4,5,5-tetramethyl-3-oxido-1H-imidazole-3-ium-1-oxyl-2-yl)phenoxy)acetate | Active | Active | 
(3S,6R)-6-(nitrooxy)hexahydrofuro[3,2-b]furan-3-yl 2-(2-bromo-4-(4,5-dihydro-4,4,5,5-tetramethyl-3-oxido-1H-imidazole-3-ium-1-oxyl-2-yl)phenoxy)acetate | Active | Active | 
(3S,6R)-6-(nitrooxy)hexahydrofuro[3,2-b]furan-3-yl 2-(4-bromo-3-(4,5-dihydro-4,4,5,5-tetramethyl-3-oxido-1H-imidazole-3-ium-1-oxyl-2-yl)phenoxy)acetate | Active | Active | Activity [4]: Active
(3S,6R)-6-(nitrooxy)hexahydrofuro[3,2-b]furan-3-yl 3-(4,5-dihydro-4,4,5,5-tetramethyl-3-oxido-1H-imidazole-3-ium-1-oxyl-2-yl)benzoate | Active |  | Activity [5]: Active
(3S,6R)-6-(nitrooxy)hexahydrofuro[3,2-b]furan-3-yl 4-(4,5-dihydro-4,4,5,5-tetramethyl-3-oxido-1H-imidazole-3-ium-1-oxyl-2-yl)benzoate | Active |  | Activity [5]: Active
(3S,6R)-6-(nitrooxy)hexahydrofuro[3,2-b]furan-3-yl (4-(4,5-dihydro-4,4,5,5-tetramethyl-3-oxido-1H-imidazole-3-ium-1-oxyl-2-yl)naphthalen-2-yl)benzoyl)-D-prolinate | Active | Active | Activity [6]: Active; Activity [7]: 14.8%; Activity [4]: Active; Activity [8]: 14.3%; Activity [9]: Active; Activity [10]: Active; Activity [11]: Active
(3S,6R)-6-(nitrooxy)hexahydrofuro[3,2-b]furan-3-yl (4-(4,5-dihydro-4,4,5,5-tetramethyl-3-oxido-1H-imidazole-3-ium-1-oxyl-2-yl)naphthalen-2-yl)benzoyl)-L-prolinate | Active | Active | Activity [5]: Active
